Measurements as given in patent US20060234909A1, “Compositions and methods for increasing drug efficiency” (priority 2003, published 2006).
Read-outs that look alike come from different tables or passages of the source. Primed or numbered codes have the meaning given here. * marks the point of attachment. 10Ca‑PXL = paclitaxel conjugated at C10 via a carbamate; 10Ca‑PXL″ = paclitaxel attached at C10 via carbamate; PEG(13) = PEG13 linker; Piv = CC(C)(C)C(=O)*; OBn = c1ccc(CO*)cc1

Experiments:
MCF-7 breast carcinoma = assay: Cytotoxicity assay (monolayer), MCF-7; format: cell-based; conditions: MCF7, ML (monolayer), read-out: MCF7 (EC50 Ave) ML;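 also: cells treated 72 h with 6-8 compound doses versus DMSO vehicle controls, EC50 fitted by 4-parameter dose-response curves, averaged across all tests and lots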
[1] = tested on: HT-29 colorectal carcinoma; assay: Cytotoxicity assay (monolayer), HT-29; format: cell-based; conditions: HT29, ML (monolayer), read-out: HT29 (EC50 Ave) ML;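 also: monolayer cultures tested in triplicate, compound exposure for three days against DMSO vehicle controls, EC50 fitted from dose-response curves and averaged across all tests and lots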
[2] = Serum stability in RPMI1640 medium containing 10% fetal bovine serum; format: in vitro ADME; conditions: for remaining at 4 h, 10 μM / remaining at 8 h, 10 μM / remaining at 24 h, 10 μM / remaining at 72 h, 10 μM / half-life at 10 μM: bovine; for remaining at 4 h, 10 μM: read-out: Relative Percent Remaining at 4 hr; for remaining at 8 h, 10 μM: read-out: Relative Percent Remaining at 8 hr; for remaining at 24 h, 10 μM: read-out: Relative Percent Remaining at 24 hr; for remaining at 72 h, 10 μM: read-out: Relative Percent Remaining at 72 hr; for half-life at 10 μM: read-out: T½ (converted)
Description: The stability of conjugates was measured in RPMI1640 cell culture medium containing 10% fetal bovine serum. The serum-containing medium was pre-warmed at 37° C. for 3 min prior to addition of test articles. Test articles, prepared in DMSO as 5 mM stocks, were added to the cell culture media to a final concentration of 10 μM. Aliquots ([…]) were withdrawn in triplicate at 0, 4, 8, 24 and 72 hours and combined with the same volume of ice-cold acetonitrile to terminate the reaction. The mixture was centrifuged at 2,000×g for 10 minutes. One part of the supernatant was mixed with four parts of deionized water to bring down the percentage of organic solvent. The diluted samples were then assayed by LC/MS for the test article. The natural log of the percent remaining was plotted versus time. A linear fit was used to determine the rate constant. The fit was truncated after the percent of remaining test article was less than 10%. The elimination half-lives associated with the disappearance of test articles were determined to compare their relative stability. The assays were carried out by Absorption Systems (Exton, Pa.).

HUVEC = assay: Cytotoxicity assay (monolayer), HUVEC; format: cell-based; conditions: ML (monolayer), read-out: HUVEC (EC50 Ave) ML
[3] = tested on: Normal human foreskin fibroblasts (HFF)
MCF-7 cells [4] = tested on: MCF-7 cells
HT-29 cells [5] = tested on: HT-29 cells
[6] = tested on: tumor cells vs normal cells; assay: Cytotoxic selectivity index (normal cells in monolayer vs tumor cells in soft agar)
tubulin = assay: Fluorescence-based tubulin polymerization assay (MPA; enhancement for paclitaxel, inhibition for vinblastine); format: biochemical
In short: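 Tubulin polymerisation was followed by fluorescence (ex 360/em 405 nm) with 1 mg/ml BSA in all assays. For paclitaxel conjugates, glycerol was omitted. Parent drugs and conjugates were tested at 0.75, 1.5, 3 and 10 micromolar final, and values come from the linear range of the dose responses.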

[7] = tested on: Normal human foreskin fibroblasts (HFF); assay: cells; conditions: Fibroblast, read-out: HFF (EC50 Ave) ML
MCF-7 cells [8] = assay: cells; conditions: Homo sapiens, MCF7, read-out: MCF7 (EC50 Ave) SA
HT-29 cells [9] = assay: cells; conditions: Homo sapiens, HT-29, read-out: HT29 (EC50 Ave) SA
Akt [10] = target: T1, Akt (Homo sapiens, UniProt P31749); assay: Akt kinase assay (PKLight ATP utilization, substrate phosphorylation as % of parent peptide); format: biochemical; design: purchased Upstate (Charlottesville, Va.) 14-276
T1 sequence (P31749 whole entry): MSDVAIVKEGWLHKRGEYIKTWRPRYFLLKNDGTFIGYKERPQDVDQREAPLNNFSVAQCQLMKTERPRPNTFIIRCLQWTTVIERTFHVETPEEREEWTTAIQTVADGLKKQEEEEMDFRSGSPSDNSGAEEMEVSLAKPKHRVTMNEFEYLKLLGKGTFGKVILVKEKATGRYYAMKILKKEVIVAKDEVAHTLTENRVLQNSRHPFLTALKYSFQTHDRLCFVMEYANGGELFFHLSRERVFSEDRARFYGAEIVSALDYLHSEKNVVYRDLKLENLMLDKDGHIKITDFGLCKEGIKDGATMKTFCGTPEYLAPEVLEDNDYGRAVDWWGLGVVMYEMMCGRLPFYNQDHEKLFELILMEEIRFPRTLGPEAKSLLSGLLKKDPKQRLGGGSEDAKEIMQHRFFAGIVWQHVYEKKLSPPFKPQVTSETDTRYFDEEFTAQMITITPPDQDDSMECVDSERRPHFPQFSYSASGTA
Description: Another test may involve monitoring the consumption of ATP. For example, ATP concentrations at time 0 or after 4 hour incubation may be monitored by luciferase reaction (PKLight kit obtained from Cambrex Corporation, One Meadowlands Plaza, East Rutherford, N.J. 07073), which generate a luminescence readout in the presence of ATP. Assays are initiated by mixing a kinase and a peptide in the presence of 40 μM ATP. After 4 hour of incubation at 30° C., PKLight reagent is added and mixed well, and luminescence readout measured. The rate of peptide phosphorylation is then directly related to the rate of decrease in the observed luminescence. Based on the first test, linkers of appropriate lengths and peptides with an effective amount of kinase activity which may be expected to be retained in the drug conjugate may be found.
Human Src (#14-326) and Akt (#14-276) kinases were purchased from Upstate (Charlottesville, Va.). Kinase reactions were carried out in 50 μl kinase reaction cocktail (25 mM Tris-HCl, pH 7.5, 5 μM β-glycerophosphate, 2 mM DTT, 0.1 mM Na3VO4, 10 mM MgCl2, 1 mg/ml BSA, […], 0.5 to 1.0 units enzyme). Substrates (peptide or drug-peptide conjugate in […]) were added (25, 50 and 100 μM) and the reaction was incubated for 2-5 hours at 30° C. PKLight reagent (23 μl) (Cambrex BioSciences, Rockland, Me.) was mixed with […] of the above kinase reaction and ATP utilization relative to no substrate and no ATP controls was determined by measuring luminescence with a SpectraMax Gemini EM plate reader (Molecular Devices, Sunnyvale, Calif.). Peptide substrates for Src and Akt have been described. For examples, see Lou et al. Letters in Peptide Science, 2, 289-296 (1995); Lou et al. Bioorganic & Medicinal Chemistry, 4, 677-682 (1996); Alessi et al. FEBS Letters, 399, 333-338 (1996). Substrate phosphorylation potential was determined from the linear portion of the substrate concentration dose response as a percentage of the activity observed with the parent peptide used for drug conjugation.

Akt [11] = target: T1, Akt; conditions: Akt peptide substrates, Alessi et al. 1996; cited from earlier work
[12] = read-out: HFF (EC50 Ave) ML, HFF, ML (monolayer)
[13] = read-out: HFFMonolayer EC50, HFF normal cells, monolayer, 72 hours, mean ± SD
[14] = read-out: MCF7 (EC50 Ave) SA, MCF7, SA (soft agar)
[15] = read-out: MCF-7 Soft Agar EC50, MCF-7 tumor cells, soft agar, 10-14 days, mean ± SD
[16] = read-out: HT29 (EC50 Ave) SA, HT29, SA (soft agar)
[17] = read-out: HT-29 Soft Agar EC50, HT-29 tumor cells, soft agar, 10-14 days, mean ± SD

| Compound | EC50 (MCF-7 breast carcinoma) | EC50 [1] | EC50 (HUVEC) | EC50 [3, 12] | EC50 (MCF-7 cells [4]; [14]) | EC50 (HT-29 cells [5]; [16]) | Ave. MPA Act. (tubulin) | Ave. Akt Kinase Act. (Akt [10]) | further results |
| --- | --- | --- | --- | --- | --- | --- | --- | --- | --- |
| CC[C@H](C)[C@H](NC(=O)[C@H](Cc1ccc(O)cc1)NC(=O)OCc1ccccc1)C(=O)N[C@@H](Cc1ccc(O)cc1)C(=O)NCC(=O)N[C@@H](CO)C(=O)N[C@@H](Cc1ccccc1)C(=O)N[C@@H](CCCCN)C(=O)NCCOCCOCCOCCNC(=O)[C@@]1(O)[C@H](O)[C@]2(CC)C=CCN3CC[C@@]4(c5cc([C@@]6(C(=O)OC)C[C@@H]7CN(CCc8c6[nH]c6ccccc86)C[C@](O)(CC)C7)c(OC)cc5N(C)[C@@H]14)[C@@H]32 [CBz-YIYGSFK-PEG(11)-3Am-VBL] | > 100 nM | > 100 nM | > 100 nM | > 100 nM | > 100 nM | > 100 nM | – | – | Relative Percent Remaining at 0 hr [2]: 100%; remaining at 4 h, 10 μM [2]: 88%; remaining at 8 h, 10 μM [2]: 102%; remaining at 24 h, 10 μM [2]: 100%; remaining at 72 h, 10 μM [2]: 61%; half-life at 10 μM [2]: > 72 h; EC50 [3, 13]: 655 ± 186 nM; EC50 (MCF-7 cells [4]; [15]): 156 ± 37 nM; EC50 (HT-29 cells [5]; [17]): 464 ± 351 nM; Cytotoxic Selectivity Index HFF/HT29 [6]: 1.4; Cytotoxic Selectivity Index HFF/MCF7 [6]: 4.2 |
| CC(=O)O[C@H]1C(=O)[C@@]2(C)[C@H]([C@H](OC(=O)c3ccccc3)[C@]3(O)C[C@H](OC(=O)[C@H](O)[C@@H](NC(=O)c4ccccc4)c4ccccc4)C(C)=C1C3(C)C)[C@]1(OC(C)=O)CO[C@@H]1C[C@@H]2O [Paclitaxel (PXL)] | – | – | – | – | – | – | C (C>80) | – | EC50 (MCF-7 breast carcinoma; Homo sapiens): < 20 nM; EC50 ([1]; Homo sapiens, HT-29): < 20 nM; EC50 (HUVEC; Homo sapiens): < 20 nM; EC50 [7]: < 20 nM; EC50 (MCF-7 cells [8]): < 20 nM; EC50 (HT-29 cells [9]): < 20 nM |
| CC[C@H](C)[C@H](NC(=O)[C@H](Cc1ccc(O)cc1)NC(=O)C(C)(C)C)C(=O)N[C@@H](Cc1ccc(O)cc1)C(=O)NCC(=O)N[C@@H](CO)C(=O)N[C@@H](Cc1ccccc1)C(=O)N[C@@H](CCCNC(=N)N)C(=O)NCCCOCCOCCOCCCNC(=O)O[C@H]1C(=O)[C@@]2(C)[C@H]([C@H](OC(=O)c3ccccc3)[C@]3(O)C[C@H](OC(=O)[C@H](O)[C@@H](NC(=O)c4ccccc4)c4ccccc4)C(C)=C1C3(C)C)[C@]1(OC(C)=O)CO[C@@H]1C[C@@H]2O [Pv-YIYGSFR-PEG(13)-10Ca-PXL] | > 100 nM | > 100 nM | > 100 nM | > 100 nM | 20 to 100 nM | > 100 nM | B (B=50-80) | – | Relative Percent Remaining at 0 hr [2]: 100%; remaining at 4 h, 10 μM [2]: 73%; remaining at 8 h, 10 μM [2]: 63%; remaining at 24 h, 10 μM [2]: 63%; remaining at 72 h, 10 μM [2]: 64%; half-life at 10 μM [2]: > 72 h; EC50 [3, 13]: 2140 nM; EC50 (MCF-7 cells [4]; [15]): 80 ± 13 nM; EC50 (HT-29 cells [5]; [17]): 175 ± 43 nM; Cytotoxic Selectivity Index HFF/HT29 [6]: 12.3; Cytotoxic Selectivity Index HFF/MCF7 [6]: 26.6 |
| CC[C@]1(O)C[C@@H]2CN(CCc3c([nH]c4ccccc34)[C@@](C(=O)OC)(c3cc4c(cc3OC)N(C)[C@H]3[C@@](O)(C(=O)OC)[C@H](OC(C)=O)[C@]5(CC)C=CCN6CC[C@]43[C@@H]65)C2)C1 [Vinblastine (VBL)] | – | – | – | – | – | – | C (C>80) | – | EC50 (MCF-7 breast carcinoma; Homo sapiens): < 20 nM; EC50 ([1]; Homo sapiens, HT-29): < 20 nM; EC50 (HUVEC; Homo sapiens): < 20 nM; EC50 [7]: < 20 nM; EC50 (MCF-7 cells [8]): < 20 nM; EC50 (HT-29 cells [9]): < 20 nM |
| Ac-RPRTSSF-PEG(13)-10Ca-PXL (N-acetyl; PEG(13) linker; paclitaxel conjugate) | > 100 nM | > 100 nM | > 100 nM | > 100 nM | > 100 nM | 20 to 100 nM | C (C>80) | C (C>40) | – |
| BOC-RPRTSSF-PEG(13)-10Ca-PXL (N-BOC; PEG(13) linker; paclitaxel conjugate) | – | – | > 100 nM | 20 to 100 nM | – | > 100 nM | C (C>80) | C (C>40) | – |
| CBz-GRPRTSSFAE(Bzl)G-3Am-VBL | 20 to 100 nM | 20 to 100 nM | < 20 nM | 20 to 100 nM | 20 to 100 nM | 20 to 100 nM | B (B=50-80) | C (C>40) | – |
| CBz-RPRTSSF-PEG(13)-10Ca-PXL (N-CBz; PEG(13) linker; paclitaxel conjugate) | > 100 nM | 20 to 100 nM | > 100 nM | > 100 nM | 20 to 100 nM | 20 to 100 nM | C (C>80) | C (C>40) | – |
| CBz-RPRTSSF-PEG(13)-10Ca-PXL x (N-CBz; PEG(13) linker; paclitaxel conjugate; salt) | > 100 nM | > 100 nM | > 100 nM | > 100 nM | > 100 nM | > 100 nM | C (C>80) | C (C>40) | – |
| Pv-GRPRAAAFAEG-PEG(13)-10Ca-PXL (Piv-GRPRAAAFAEG-{PEG(13)-10Ca‑PXL}; also: 2 TFA salt) | > 100 nM | > 100 nM | > 100 nM | > 100 nM | 20 to 100 nM | 20 to 100 nM | C (C>80) | C (C>40) | – |
| Pv-GRPRTSSFAE(Bzl)G-PEG(13)-10Ca-PXL (Piv-GRPRTSSFAE(OBn)G-{PEG(13)-10Ca‑PXL″}) | > 100 nM | > 100 nM | > 100 nM | > 100 nM | > 100 nM | > 100 nM | C (C>80) | C (C>40) | – |
| RPRAATF [peptide substrate for Akt from the literature] | – | – | – | – | – | – | – | – | specificity with respect to related MAP kinase and S6 kinase (Akt [11]): exhibit specificity |
| RPRTSTF [peptide substrate for Akt from the literature] | – | – | – | – | – | – | – | – | specificity with respect to related MAP kinase and S6 kinase (Akt [11]): exhibit specificity |
